Experimental data: US12522596B2, “Compounds as GLP-1R agonists” (Terns Pharmaceuticals, Inc., priority 2021, dated 2026)

How the values were obtained:
[1] = Metabolic stability in human hepatocytes; format: in vitro ADME; conditions: cryopreserved hepatocytes; human hepatocytes, 1 μM
Experimental: (§1) Test compounds were incubated in rat and human hepatocytes and stability was assessed from the substrate […] approach. Test compounds were dissolved in dimethyl sulfoxide (DMSO) to create a 10 mM Stock, and then further diluted to create a 1000× Working Stock of 1 mM with DMSO in 96-well plates for test compounds and the positive control (midazolam). Vials containing cryopreserved hepatocytes were removed from the liquid nitrogen tank and immediately immersed in a 37° C. water bath. The vials were shaken gently until the contents had thawed and were then immediately emptied into 48 mL of pre-warmed HT Medium in a 50 mL conical tube. Cells remaining in the vial were resuspended with 1.0 mL of pre-warmed HT Medium and added to the conical tube. The tube was capped and then gently inverted several times to resuspend the hepatocytes. The cell suspension was centrifuged at 50×g at room temperature for 5 minutes and the supernatant discarded. The cell pellet was loosened by gently swirling the centrifuge tube and was re-suspended in 4 mL of warm Dulbecco's Modified Eagle medium (DMEM). Cell density was determined by a cell counter by Nexcelom, and DMEM medium was added to obtain a target density of 1×10^6 cells/mL. The assay was carried out in 96-well microtiter plates. Test Compounds were incubated at 1 μM with 1×10^6 cells/mL hepatocytes in DMEM for 0, 30, 60, 120 and 240 minutes. The incubation was carried out with gentle shaking at 37° C. under a humid atmosphere of 95% air/5% CO2. The volume of the incubation mixture was 37 μL with a final 0.1% DMSO. At each of the time points, the incubation was stopped by adding 150 μL quenching solution (100% acetonitrile, 0.1% formic acid containing bucetin as an internal standard for positive ESI mode). Subsequently, the mixtures were vortexed for 20 min and centrifuged at 4,000 RPM at 10° C. The supernatant (80 μL) was transferred to a clean 96-well plate and analyzed by LC-MS/MS. Midazolam at 1 μM with a final 0.1% DMSO was included as a positive control to verify assay performance. The percent parent remaining, intrinsic and predicted hepatic clearance and t1/2 were calculated. All samples were analyzed by LC-MS/MS using an AB Sciex API 4000 instrument, coupled to a Shimadzu LC-20AD LC Pump system. Separation was achieved using a Waters Atlantis T3 dC18 reverse phase HPLC column (20 mm×2.1 mm) at a flow rate of 0.5 mL/min. The mobile phase consisted of 0.1% formic acid in water (solvent A) and 0.1% formic acid in 100% acetonitrile (solvent B). Elution conditions are detailed below.
(§2) The ion optics of each test compound were optimized for their declustering potential (DP), […] (CE), collision-cell exit potential (CXP) and used in a selected ion monitoring experiment in the positive ion mode. The peak area ratio of each test compound to internal standard was then evaluated for stability. The extent of metabolism was calculated based on the disappearance of the test compound, compared to its initial concentration. The initial rates of clearance of the test compound were calculated using the linear regression plot of semi-log % remaining of the compound versus time. The elimination rate constant (k) of the linear regression plot was then used to determine t1/2 and the intrinsic clearance (CLint) using the following formula, where Chepatocyte (million cells/mL) is the cell density of the incubation:
(§3) The predicted hepatic clearance (CLhep) was calculated using the well stirred method with the following formula with CLint(in vivo) normalized based on liver weight: […]
(§4) The relevant physiological parameters of liver weight, blood flow, and hepatocellularity for various species are listed below: […]

[2] = Rat pharmacokinetics, oral dosing; format: in vivo, Sprague-Dawley rats; conditions: for AUC(0-t) / Cmax / half-life: male, Sprague-Dawley, rat plasma, 3 mg/kg PO (0.6 mg/mL); for PK properties relative to Reference Compound A: dosed orally
Experimental: Oral dosing: Compounds were formulated at 0.3 mg/mL or 0.6 mg/mL in a solution comprising 5% polyethylene glycol 400 and 95% (12% (w/v) sulfobutyl-β-cyclodextrin in water) (v/v). Formulated compounds were administered to male, 7-11 week old Sprague-Dawley rats by oral gavage at a dose of 3 mg/kg.
Sample collection: Blood collections of about 0.2 mL per time point were performed from jugular vein or other suitable site of each animal, into pre-chilled commercial EDTA-K2 tubes and placed on wet ice until centrifugation. Blood samples were processed for plasma by centrifugation at approximately 4° C., 3,200 g for 10 min. Plasma was collected and transferred into pre-labeled 96 well plate or polypropylene tubes, quick frozen over dry ice and kept at −60° C. or lower until LC-MS/MS analysis.
Data analysis: Plasma concentration versus time data was plotted in graph and analyzed by non-compartmental approaches using the Phoenix WinNonlin 6.3 software program. Related PK parameters were calculated according to dosing route, e.g., CL, Vdss and C0 for intravenous administration, Cmax, Tmax or % F for extravascular administration, and T1/2, AUC(0-t), AUC(0-inf), MRT(0-t), MRT(0-inf) for all routes.

[3] = Metabolic stability in rat hepatocytes; format: in vitro ADME; conditions: cryopreserved hepatocytes, 1 μM
Experimental: as §1, §2, §3, §4

[4] = system: rat hepatocytes; assay: Metabolic stability in rat hepatocytes; format: in vitro ADME
Experimental: as §1, §2, §3, §4

[5] = biological target: T1, human GLP-1R receptor (Homo sapiens, UniProt P43220); assay: GLP-1R low expression cell assay (cAMP TR-FRET, CHO-K1_hGLP-1Rlow_clone10); format: cell-based; conditions: CHO-K1_hGLP-1Rlow_clone10 cells
T1 construct: expressed in transfected cells
T1 sequence (P43220 24-463): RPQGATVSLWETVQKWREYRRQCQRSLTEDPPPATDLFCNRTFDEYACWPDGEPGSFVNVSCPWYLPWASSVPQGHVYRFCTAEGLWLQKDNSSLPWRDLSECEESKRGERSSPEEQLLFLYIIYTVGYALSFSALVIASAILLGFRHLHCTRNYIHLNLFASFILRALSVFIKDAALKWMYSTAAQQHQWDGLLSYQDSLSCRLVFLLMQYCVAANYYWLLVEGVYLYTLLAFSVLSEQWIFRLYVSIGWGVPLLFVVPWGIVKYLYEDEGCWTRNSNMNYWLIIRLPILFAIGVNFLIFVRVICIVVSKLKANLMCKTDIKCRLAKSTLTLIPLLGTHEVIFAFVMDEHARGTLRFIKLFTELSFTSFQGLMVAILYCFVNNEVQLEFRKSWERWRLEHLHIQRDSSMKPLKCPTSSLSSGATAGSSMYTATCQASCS
Experimental: Stable cell lines expressing high and low GLP-1R surface expression were generated in CHO-K1 cells transfected (Fugene 6) with a puromycin selectable DNA plasmid encoding human GLP-1R receptor (accession number: NM_002062.5) under control of an EF1A promoter. Transfected cells were seeded into 24-well plates (9,000 cells/well) containing complete medium and incubated in a humidified incubator at 37° C. with 5% carbon dioxide. After overnight incubation, medium was replaced with complete medium supplemented with puromycin (6 μg/mL) and refreshed every 2-3 days to select for stably transfected cells. Individual pools of selected cells were expanded prior to analysis for responsiveness to GLP-1 control peptide using a TR-FRET assay to detect cAMP (LANCE Ultra CAMP Assay, Perkin Elmer). Briefly, cells were collected in Versene solution, plated in 384-well plates (1,000 cells/well) and combined with serially diluted GLP-1R control peptide (10 nL) using an acoustic dispenser (ECHO). Plates were incubated for 30 minutes at 25° C. prior to the addition of EU-CAMP tracer (5 μL) and Ulight-anti-cAMP (5 μL) reagents to each well, followed by 15 minutes incubation at 25° C. TR-FRET signal was detected using an En Vision Multimode Plate Reader (excitation=320 nm; emission=615 and 655 nm). Dose-response curves were used to generate EC50 values as a measure of responsiveness to the GLP-1R control peptide. Selected cell lines were monitored for responsiveness over multiple passages to ensure stability. […] Briefly, GLP-1R expression was analyzed by flow cytometry using a fluorescein-labeled Exendin-4 peptide fluorescent probe (FLEX). Cells were harvested in Versene solution and washed 3-times with PBS+0.5% BSA before incubation with FLEX reagent (10 μM) for 2 hours at room temperature. After incubation, cells were washed 3-times in PBS+0.5% BSA before final resuspension in PBS prior to analysis by flow cytometry to measure FLEX mean fluorescence intensity (MFI) as a measure of GLP-1R expression on the cell surface.
For compound testing in the CHO-K1_hGLP-1Rlow_clone10 cell line, cells were seeded in 384-well plates (1,000 cells/well). Test compounds were serially diluted in DMSO (10-point, 3-fold dilution), added to wells using an ECHO dispenser (10 nL/well) and plates were centrifuged for 1 min and agitated for 2 min at room temperature prior to 30-minute incubation at 25° C. After incubation, Eu-CAMP (5 μL) and Ulight-anti-cAMP (5 μL) reagents were added to each well, followed by centrifugation for 1 minute, agitation for 2 minutes at room temperature, and final incubation of the plates at 25° C. for 15 minutes. Plates were read using an EnVision microplate reader (excitation=320 nm; emission=615 and 655 nm). Dose-response curves were generated from duplicate wells based on percent activation calculated relative to a control GLP-1 peptide agonist that was run in parallel. EC50 values were determined by fitting percent activation as a function of compound concentration using the Hill equation (XLfit).
Stable cell lines expressing high and low GLP-1R surface expression were generated in CHO-K1 cells transfected (Fugene 6) with a puromycin selectable DNA plasmid encoding human GLP-1R receptor (accession number: NM_002062.5) under control of an EF1A promoter. Transfected cells were seeded into 24-well plates (9,000 cells/well) containing complete medium and incubated in a humidified incubator at 37° C. with 5% carbon dioxide. After overnight incubation, medium was replaced with complete medium supplemented with puromycin (6 μg/mL) and refreshed every 2-3 days to select for stably transfected cells. Individual pools of selected cells were expanded prior to analysis for responsiveness to GLP-1 control peptide using a TR-FRET assay to detect cAMP (LANCE Ultra CAMP Assay, Perkin Elmer).

Row | SMILES | CLint scaled at 1 μM [1] [mL/min/kg] | half-life at 1 μM [1] [h] | AUC(0-t) ([2]; rat, plasma, po, 3 mg/kg) [ng·h/mL] | Cmax ([2]; rat, plasma, po, 3 mg/kg) [ng/mL] | half-life ([2]; rat, plasma, po, 3 mg/kg) [h] | PK properties relative to Reference Compound A ([2]; rat) | CLint scaled at 1 μM [3] [mL/min/kg] | half-life at 1 μM [3] [h] | CLint relative to reference standard [4] | Half-life relative to reference [4] | EC50 [5] [nM] | AUC(0-t) [2] [ng·h/mL] | half-life [2] [h]
1 | [2H]C([2H])(Oc1cccc(C2CCN(Cc3nc4ccc(C(=O)O)cc4n3Cc3cncs3)CC2)n1)c1ccc(C#N)cc1F [Compound 27] | 15.6 ± 0.7 | 2.57 ± 0.117 | 617 ± 248 | 478 ± 186 | 1.37 ± 0.18 | similarly improved PK properties | 29 ± 0.58 | 1.91 ± 0.0383 | significantly lower | significantly higher | 8.6 | – | –
2 | N#Cc1cnc(COc2cccc(C3CCN(Cc4nc5ccc(C(=O)O)cc5n4Cc4cncs4)CC3)n2)c(F)c1 [Compound 29] | 15.3 ± 0.76 | 2.61 ± 0.13 | 411 ± 32 | 299 ± 62.9 | 1.54 ± 0.46 | similarly improved PK properties | 35.8 ± 1.42 | 1.55 ± 0.0615 | significantly lower | significantly higher | 27.8 | – | –
3 | N#Cc1ccc(COc2cccc(C34CCN(Cc5nc6ccc(C(=O)O)cc6n5Cc5cncs5)CC3C4)n2)c(F)c1 (centres unmarked) [Compound 14] | 20.1 ± 0.59 | 1.99 ± 0.0583 | – | 581 ± 100 | – | similarly improved PK properties | 92.8 ± 3.3 | 0.597 ± 0.0212 | significantly increased | – | 30.1 | 582 ± 45 | 3.14 ± 1.88
